From the supplement of paper PMC10331698
± gives the standard deviation of the averaged measurements.

Assays:
Test in all cases: level (log10 ratio to DMSO vehicle control); higher = higher biomarker level / cell amount than vehicle control
[1] = compound: CO[Si](C)(CCC(F)(F)C(F)(F)C(F)(F)C(F)(F)C(F)(F)C(F)(F)F)OC [Dimethoxymethyl((perfluorohexyl)ethyl)silane] (in DMSO)
Description: (§1)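 BioMAP Diversity Plus panel of 12 human primary cell co-culture systems (3C, 4H, LPS, SAg, BT, BF4T, BE3C, CASM3C, HDF3CGF, KF3CT, MyoF, Mphg). Compounds were added 1 h before stimulation and left for 24 h (MyoF 48 h; BT 72 h for soluble read-outs or 6 d for IgG). Biomarkers were read by ELISA, cytotoxicity by SRB, PBMC viability and proliferation by Alamar Blue. Each well value was divided by the mean of 8 DMSO control wells on the same plate and log10 transformed; duplicate blinded samples were tested at 4 concentrations.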

Perfluoroundecanoic acid = compound: O=C(O)C(F)(F)C(F)(F)C(F)(F)C(F)(F)C(F)(F)C(F)(F)C(F)(F)C(F)(F)C(F)(F)C(F)(F)F [Perfluoroundecanoic acid] (in DMSO); conditions: 6700 nM
Description: as §1

[2] = compound: O=S(=O)(O)CCC(F)(F)C(F)(F)C(F)(F)C(F)(F)C(F)(F)C(F)(F)C(F)(F)C(F)(F)F [8:2 Fluorotelomer sulfonic acid] (in DMSO)
Description: as §1

[3] = compound: O=S(=O)(O)C(F)(F)C(F)(F)C(F)(F)C(F)(F)C(F)(F)C(F)(F)C(F)(F)F [Perfluoroheptanesulfonic acid] (in DMSO)
Description: as §1

[4] = compound: NS(=O)(=O)C(F)(F)C(F)(F)C(F)(F)C(F)(F)C(F)(F)C(F)(F)C(F)(F)C(F)(F)F [Perfluorooctanesulfonamide] (in DMSO)
Description: as §1

[5] = compound: O=C(O)C(F)(F)C(F)(F)C(F)(F)OC(F)(F)F [Perfluoro(4-methoxybutanoic) acid] (in DMSO)
Description: as §1

[6] = compound: O=C(O)C=C(C(F)(F)F)C(F)(F)F [3,3-Bis(trifluoromethyl)-2-propenoic acid] (in DMSO)
Description: as §1

Test System	level (log10) ([1]; 6700 nM)	level (log10) ([1]; 20000 nM)	level (log10) (Perfluoroundecanoic acid)	level (log10) ([2]; 6700 nM)	level (log10) ([2]; 20000 nM)	level (log10) ([2]; 60000 nM)	level (log10) ([3]; 1500 nM)	level (log10) ([3]; 4400 nM)	level (log10) ([3]; 13000 nM)	level (log10) ([3]; 40000 nM)	level (log10) ([4]; 6700 nM)	level (log10) ([4]; 20000 nM)	level (log10) ([5]; 6700 nM)	level (log10) ([5]; 20000 nM)	level (log10) ([5]; 60000 nM)	level (log10) ([6]; 6700 nM)	level (log10) ([6]; 20000 nM)	level (log10) ([6]; 60000 nM)
CASM3C:Serum Amyloid A	-0.015 ± 0.0014	0.014 ± 0.041	0.014 ± 0.016	0.0195 ± 0.0064	0.0475 ± 0.025	0.096 ± 0.0042	0.03 ± 0.051	-0.027 ± 0.0028	-0.0305 ± 0.032	-0.013 ± 0.048	0.0055 ± 0.028	0.012 ± 0.047	-0.0435 ± 0.015	-0.0465 ± 0.0064	-0.0075 ± 0.081	-0.013 ± 0.021	-0.0185 ± 0.0092	-0.005 ± 0.038
lMphg:CCL2/MCP-1	-0.027 ± 0.0057	0.001 ± 0.033	0.0025 ± 0.028	0.0075 ± 0.019	-0.019 ± 0.016	0.0155 ± 0.00071	-0.009 ± 0.03	-0.004 ± 0.047	0.003 ± 0.0042	0.035 ± 0.0028	-0.032 ± 0.016	-0.0485 ± 0.046	-0.0195 ± 0.026	-0.0075 ± 0.029	0.0265 ± 0.00071	-0.007 ± 0.0028	-0.016 ± 0.0028	-0.078 ± 0.061
CASM3C:CXCL8/IL-8	-0.004	0.004 ± 0.0085	0.0005 ± 0.0021	0.019 ± 0.018	-0.0065 ± 0.012	0.0035 ± 0.013	0.0015 ± 0.013	-0.005 ± 0.0099	-0.0105 ± 0.005	-0.0005 ± 0.019	-0.0055 ± 0.0035	-0.0125 ± 0.0035	0.002 ± 0.0099	-0.0065 ± 0.013	0.0165 ± 0.011	-0.0025 ± 0.0021	-0.0045 ± 0.005	0.0125 ± 0.022
HDF3CGF:SRB	0.0315 ± 0.025	0.0455 ± 0.036	0.0395 ± 0.011	-0.044 ± 0.064	-0.017 ± 0.1	0.168 ± 0.037	-0.042 ± 0.028	-0.045 ± 0.011	-0.0065 ± 0.015	0.035 ± 0.1	-0.028 ± 0.055	0.0615 ± 0.019	0.006 ± 0.0071	0.011 ± 0.047	0.0125 ± 0.04	-0.014 ± 0.028	0.0125 ± 0.021	-0.022 ± 0.02
KF3CT:CCL2/MCP-1	-0.0325 ± 0.0092	0.008 ± 0.059	-0.075 ± 0.011	-0.0135 ± 0.005	-0.0585 ± 0.029	-0.0475 ± 0.011	-0.0115 ± 0.022	-0.011 ± 0.011	0.0015 ± 0.0021	0.0125 ± 0.022	0.025 ± 0.016	0.116 ± 0.037	-0.006 ± 0.011	0.0105 ± 0.0021	0.0375 ± 0.07	-0.0055 ± 0.036	-0.015 ± 0.014	-0.028 ± 0.052
BE3C:MMP-9	-0.006 ± 0.0042	-0.017 ± 0.013	-0.139 ± 0.013	0.0045 ± 0.0064	0.0325 ± 0.035	0.015 ± 0.031	-0.0015 ± 0.032	-0.0125 ± 0.081	-0.025 ± 0.041	0.0055 ± 0.04	-0.101 ± 0.016	-0.131 ± 0.0014	-0.008 ± 0.0014	0.0035 ± 0.0064	0.011 ± 0.0057	-0.0425 ± 0.005	-0.0735 ± 0.0021	-0.079 ± 0.027
CASM3C:SRB	-0.006 ± 0.0042	-0.011 ± 0.0028	0.0025 ± 0.0035	0.0075 ± 0.005	0.0055 ± 0.005	0.0105 ± 0.0035	0.004 ± 0.0057	0.0045 ± 0.00071	-0.0075 ± 0.0035	-0.011 ± 0.0014	0.0075 ± 0.011	-0.0075 ± 0.0021	-0.001 ± 0.0014	-0.001 ± 0.0028	-0.0045 ± 0.011	0.0145 ± 0.016	-0.0075 ± 0.0021	-0.027
HDF3CGF:CCL2/MCP-1	-0.026 ± 0.034	-0.008 ± 0.054	-0.077 ± 0.042	0.0005 ± 0.022	-0.008 ± 0.03	0.0115 ± 0.022	0.006	0.0055 ± 0.0035	0.005 ± 0.014	0.021 ± 0.038	-0.0105 ± 0.0064	-0.567 ± 0.14	0.0035 ± 0.035	0.012 ± 0.018	0.019 ± 0.064	-0.0775 ± 0.052	-0.0935 ± 0.056	-0.084 ± 0.028
CASM3C:HLA-DR	-0.012 ± 0.021	-0.0005 ± 0.0035	-0.007 ± 0.017	0.0155 ± 0.023	-0.009 ± 0.024	-0.015 ± 0.017	-0.011 ± 0.0028	0.009 ± 0.0085	-0.0255 ± 0.028	-0.009 ± 0.031	-0.0045 ± 0.012	-0.004 ± 0.0085	-0.016 ± 0.014	-0.006 ± 0.023	-0.0095 ± 0.00071	-0.121 ± 0.0028	-0.167 ± 0.0085	-0.181 ± 0.067
KF3CT:CD54/ICAM-1	-0.0135 ± 0.015	0.0145 ± 0.0078	-0.019 ± 0.0028	-0.026 ± 0.02	-0.0495 ± 0.018	-0.0515 ± 0.005	-0.013 ± 0.0085	0.001 ± 0.0099	-0.0085 ± 0.0078	0.0005 ± 0.0078	0.0155 ± 0.023	-0.0235 ± 0.028	-0.005 ± 0.024	-0.017	-0.002 ± 0.013	-0.007 ± 0.0057	0.008 ± 0.0071	0.022 ± 0.016
KF3CT:MMP-9	-0.008 ± 0.0014	-0.0065 ± 0.016	-0.172 ± 0.027	-0.009 ± 0.0014	0.0165 ± 0.0078	-0.0335 ± 0.018	0.0045 ± 0.025	-0.002 ± 0.0042	-0.01 ± 0.0042	0.0345 ± 0.013	0.0365 ± 0.026	-0.274 ± 0.023	0.001 ± 0.0057	0.0055 ± 0.0092	0.0205 ± 0.013	-0.029 ± 0.025	-0.031 ± 0.041	-0.078 ± 0.028
3C:CD141/Thrombomodulin	-0.0035 ± 0.0021	-0.0275 ± 0.025	-0.023 ± 0.047	-0.003 ± 0.024	-0.011 ± 0.034	0.0285 ± 0.037	0.014 ± 0.013	-0.0085 ± 0.028	-0.035 ± 0.064	-0.042 ± 0.028	0.018 ± 0.0099	0.107 ± 0.0014	0.003 ± 0.055	-0.0165 ± 0.11	-0.0245 ± 0.12	0.023 ± 0.0057	0.0025 ± 0.00071	0.0215 ± 0.037
lMphg:CD62E/E-Selectin	0.019 ± 0.0099	0.0135 ± 0.033	-0.004 ± 0.041	0.0165 ± 0.0092	0.048 ± 0.0042	0.103 ± 0.0057	-0.029 ± 0.028	-0.0015 ± 0.046	-0.0135 ± 0.054	0.0415 ± 0.043	-0.118 ± 0.041	-0.125 ± 0.0057	-0.0175 ± 0.047	-0.0265 ± 0.057	-0.0225 ± 0.054	-0.049 ± 0.0085	-0.068 ± 0.02	-0.14 ± 0.034
HDF3CGF:CXCL10/IP-10	-0.0105 ± 0.026	-0.0165 ± 0.035	-0.144 ± 0.0092	-0.014 ± 0.0014	-0.0315 ± 0.0092	-0.06 ± 0.016	0.0115 ± 0.036	-0.0195 ± 0.025	-0.042 ± 0.042	-0.0805 ± 0.00071	-0.216 ± 0.011	-0.893 ± 0.047	0.0145 ± 0.016	-0.004 ± 0.0042	-0.004 ± 0.0099	-0.0175 ± 0.005	-0.0445 ± 0.005	-0.04 ± 0.025
lMphg:SRB	-0.0025 ± 0.0092	-0.0045 ± 0.00071	-0.001 ± 0.011	-0.006 ± 0.02	-0.013 ± 0.017	-0.029 ± 0.0057	-0.01 ± 0.013	-0.0055 ± 0.011	0.0015 ± 0.0035	0.003 ± 0.0057	-0.013	-0.052 ± 0.0085	-0.008 ± 0.0099	-0.0135 ± 0.0035	-0.0055 ± 0.016	-0.0145 ± 0.013	-0.0205 ± 0.0021	-0.0205 ± 0.028
KF3CT:CXCL9/MIG	-0.004	-0.005 ± 0.0028	0.0135 ± 0.018	0.005 ± 0.017	0.003 ± 0.0099	0.01 ± 0.0057	-0.005 ± 0.0071	-0.006 ± 0.0099	-0.005 ± 0.0028	0.014 ± 0.0042	0.0075 ± 0.0035	-0.032 ± 0.034	0.0195 ± 0.0021	0.0075 ± 0.0092	0.016 ± 0.018	0.0015 ± 0.005	-0.003 ± 0.0085	0.006 ± 0.011
